{
  "source": "paper PMC12744750",
  "about": "(Plant Communications, 2025)",
  "key": {"[1]": {"test": "Anaerobic Cu(I) titration monitored by UV-vis and fluorescence spectra", "format": "binding", "settings": "19.8 μM synthetic PLS, titration with CuCl; features at 242 nm and 306 nm", "method": "Freeze-dried synthetic PLS peptide (Cambridge Research Biochemicals) was dissolved in DMSO. An aliquot was added to aqueous buffer (10 mM HEPES [pH 7], 20 mM NaCl, 80 mM KCl), and absorbance was recorded at 280 nm. PLS concentration was estimated from the absorbance and the ProtParam estimated extinction coefficient of 2980 M^−1 cm^−1. Concurrently, a sample was submitted for quantitative amino acid analysis (Abingdon Health Laboratory Services). From this analysis, a conversion factor of 2.27 was generated, which was applied to the concentrations determined by A280 nm.\nAll Cu(I) titration experiments were carried out in an anaerobic chamber (Belle Technology) using metal-free CHELEX-treated, degassed buffers. […] The reductant NH2OH was included at a final concentration of 1 mM to maintain Cu(I) in its reduced state. […] After each addition, solutions were thoroughly mixed and absorbance spectra recorded using a Lambda 35 UV/Vis spectrophotometer (PerkinElmer). Titration isotherm data were fitted using simulated affinity curves with DynaFit ([Kuzmič, 2009])."}, "[2]": {"system": "Arabidopsis pls mutant seedlings (primary root length)", "test": "Hydroponic peptide feeding: rescue of short primary root of pls mutant", "format": "in vivo, Arabidopsis thaliana", "method": "(A) Amino acid sequence of the PLS peptide from Arabidopsis thaliana with the Camelina sativa PLS sequence and the synthetic truncations N1, N2, C1, and C2 indicated by horizontal lines. Two cysteine residues are highlighted in bold. (B) Effect of the synthetic Arabidopsis PLS full-length peptide, A. thaliana PLS(FL), and the Camelina PLS peptide (C. sativa PLS) on Arabidopsis primary root length. Wild-type (C24; blue bars) and pls mutant seedlings (orange bars) were grown hydroponically in the presence (100 nM) or absence of peptide for 10 days. ∗∗∗P < 0.05, t-test between C24 and pls. Error bars show ±1 standard error of the mean, n = 20. (C) Effect of synthetic full-length and truncated peptides on primary root length of wild-type (blue bars) and pls mutant (orange bars) Arabidopsis. Seedlings were grown hydroponically in the presence of 50 nM peptide for 10 days. C1, C-terminal 14 amino acids; C2, C-terminal 24 amino acids; N1, N-terminal 22 amino acids; N2, N-terminal 9 amino acids; full-length PLS, 36 amino acids. Error bars show ±1 standard error of the mean, n = 25. ∗∗∗P < 0.05, t-test between C24 and pls.\nproPLS::PLS:GFP comprises a 1.5-kb PLS promoter sequence ([Casson et al., 2002]) fused to the PLS open reading frame in pMDC107 (obtained from Prof. P.J. Hussey, Durham University) as a C-terminal GFP translational fusion. The PLS ORF with its 1.5-kb promoter was amplified from the TOPO 2.1 vector, which contained the PLS gene sequence with promoter ([Casson et al., 2002]); the primers used for cloning are listed in supplemental Table 9. pls mutant plants were transformed using the method of [Clough and Bent (1998)]. proPLS::GFP plants were generated using the 1.5-kb PLS promoter ([Casson et al., 2002]) fused to GFP in a wild-type background. p35S::GFP seedlings were obtained from Dr. Piers Hemsley, Durham University. Seedlings of Arabidopsis thaliana ecotype C24 or Col-0, pls mutants, and transgenic PLS overexpressers, all from lab stocks, were grown on solid sterile half-strength (2.2 g/l) Murashige and Skoog medium (Sigma-Aldrich) containing 10 g/l sucrose (half-strength [½] MS10 medium) solidified with 2.5 g/l Phytagel (Sigma-Aldrich) in 90-mm Petri dishes (Sarstedt, Leicester, UK) at 21°C under a 16-h photoperiod as described previously ([Casson et al., 2002]; [Chilley et al., 2006]). N. benthamiana plants (lab stocks) were grown in a controlled environment (21°C, 16-h photoperiod) for transient expression studies in leaf tissue. For hydroponic feeding studies, Arabidopsis seedlings were cultured in liquid ½ MS10 medium (1 ml/well) in sterile 24-well plates (Sarstedt), essentially as described in [Matsuzaki et al. (2010]). For hormone and peptide assays, one seedling was grown in each well at 21°C under a 16-h photoperiod. For peptide feeding experiments, purified freeze-dried peptide was dissolved in DMSO to create a 500-μM stock solution. The peptide stock solution was added to liquid ½ MS10 medium containing 0.1% DMSO to obtain a final peptide concentration of 50 or 100 nM (or 10, 25, 50, and 100 nM for dose-dependent assays). For copper treatments, 1 mM CuSO4 solution was filter sterilized and added to autoclaved liquid ½ MS10 medium to obtain final CuSO4 concentrations of 0, 5, 10, 15, 20, 25, 30, 35, 40, 45, and 50 μM. Seedlings were scanned to create a digital image, and root lengths of the seedlings were measured using ImageJ. Statistical analysis was performed using Real Statistics Resource Pack software (release 3.8, www.real-statistics.com) in Excel (Microsoft) using data from at least 10 independently grown seedlings for root growth analysis; specific numbers are defined for each experiment."}},
  "data": [
    {"substance": "PLS(FL): full-length 36-amino-acid PLS peptide from Arabidopsis (MKPRLCFNFRRRSISPCYISISYLLVAKLFKLFKIH)", "values": [
      {"measurement": "Cu(I)-dependent change of UV-vis and fluorescence spectra", "setting": "[1]", "result": "consistent with complex formation"},
      {"measurement": "rescue of root growth of pls seedlings", "setting": "[2]; 50 nM peptide, hydroponic, 10 days, n = 25 (Figure 2C)", "result": "rescued root growth"},
      {"measurement": "difference in rescue effects of PLS(FL) and PLS(N1), t-test P", "setting": "[2]; 50 nM, n = 25", "result": "> 0.1"},
      {"measurement": "difference in rescue effects of PLS(FL) and PLS(N1)", "setting": "[2]; 50 nM, n = 25, t-test", "result": "did not differ significantly"},
      {"measurement": "rescue of short primary root length of pls mutant", "setting": "[2]; hydroponic, 10 days, 100 nM (Figure 2B) or 50 nM (Figure 2C)", "result": "able to rescue the short primary root length"}
    ]}
  ]
}
